Results as given in patent publication US20070155783A1, “Substituted cyclohexyl and piperidinyl derivates as melanocortin-4 receptor modulators” (priority 2003, published 2007).

Experiments:
[1] = target: T1, hMC4-R (Homo sapiens, UniProt P32245); experiment: Membrane binding assay, competition with fluorescence labeled NDP-alpha-MSH (fluorescence polarization); details: HEK293 cell membrane preparations expressing human melanocortin receptor
T1 construct: expressed in transfected cells; host or cells: HEK293 cells
Description: A membrane binding assay is used to identify competitive inhibitors of fluorescence labeled NDP-alpha-MSH binding to HEK293 cell membrane preparations expressing human melanocortin receptors.
The test compound or unlabeled NDP-alpha-MSH is dispensed at varying concentrations to a 384 well microtiter plate. Fluorescence labeled NDP-alpha-MSH is dispensed at a single concentration, followed by addition of membrane preparations. The plate is incubated for 5 h at room temperature.
The degree of fluorescence polarization is determined with a fluorescence polarization microplate reader.

[2] = target: T1, hMC4-R; experiment: Functional cellular cAMP assay in HEK293 cells (fluorescence polarization); type: cell-based; details: for EC50: HEK293 cells expressing human melanocortin receptor, cAMP production; for % activation functional assay: cAMP produced compared to stimulation with NDP-alpha-MSH
Description: A functional cellular assay, based on competition between unlabeled cAMP and a fixed quantity of fluorescence labeled cAMP for a limited number of binding sites on a cAMP specific antibody, is used to discriminate melanocortin receptor agonists from antagonists by fluorescence polarization.
HEK293 cells expressing one of the human melanocortin receptors are transferred to 384 well microtiter plates, an appropriate amount of cAMP antibody is added, followed by the addition of different concentrations of the test compound to effect cAMP production. Cells are lysed and a fluorescence labeled cAMP conjugate is dispensed. The plate is read on a fluorescence polarization microplate reader and the amount of cAMP produced as a response to a test compound is compared to the production of cAMP resulting from stimulation with NDP-alpha-MSH.
To define antagonistic activity of a test compound, the compound is dispensed at different concentrations to cells stimulated by an appropriate amount of NDP-α-MSH. Inhibition of cAMP production is determined by comparing the inhibition of cAMP production of the test compound to the inhibition of cAMP production by a known inhibitor tested at the same concentrations.

[3] = system: male Wistar rats; experiment: Spontaneous feeding paradigm, food intake in rats; type: in vivo, rat; details: 10 mg/kg
Description: Food intake in rats is measured after i.p. or p.o. administration of the test compound (see e.g. Chen, A. S. et al. Transgenic Res 2000 April; 9(2):145-54).
3-4 Hours following the onset of the light-phase, individually housed, male Wistar rats (200 -300 g) receive an ip injection or po application of test compound or vehicle in an administration volume of 2 ml/kg. Following the administration of substances (1-30 mg/kg), a pre-weighted amount of normal laboratory chow is placed into the food hopper. Food remaining is measured by hand at 1-2 hour intervals for up to 8 hours. Differences in food intake between test-compound and vehicle-treated rats are evaluated.
Selected Examples of the present invention were active in the rat model at 10 mg/kg after p.o. administration of the test compound using male Wistar rats (n=4-8).

T1 sequence (P32245 whole entry): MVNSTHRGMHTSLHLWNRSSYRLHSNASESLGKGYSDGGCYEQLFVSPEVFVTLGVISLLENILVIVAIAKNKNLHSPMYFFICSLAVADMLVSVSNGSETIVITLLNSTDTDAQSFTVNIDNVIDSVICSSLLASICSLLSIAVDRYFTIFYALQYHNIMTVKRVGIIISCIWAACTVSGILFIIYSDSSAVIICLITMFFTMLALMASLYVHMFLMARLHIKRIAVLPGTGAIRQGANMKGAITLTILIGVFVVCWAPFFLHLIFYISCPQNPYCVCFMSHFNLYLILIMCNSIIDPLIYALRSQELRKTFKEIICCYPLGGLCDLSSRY

| SMILES | IC50 [1] | EC50 [2] | % activation functional assay [2] | increase in cumulative food intake compared to vehicle ([3]; 2 hours following administration, p=0.048, n=4) | increase in cumulative food intake compared to vehicle ([3]; 4 hours following administration, p=0.092, n=4) | increase in cumulative food intake compared to vehicle ([3]; 7 hours following administration, p=0.047, n=4) |
| --- | --- | --- | --- | --- | --- | --- |
| O=C(N[C@H](C=C1CCC(c2ccccc2CN2CCCC2=O)CC1)Cc1ccc(Cl)cc1)[C@H]1Cc2ccccc2CN1 (stereo partly shown) [Example 1] | 0.6 µM | 3.3 µM | 100% |  |  |  |
| O=C(N[C@H](C=C1CCN(c2ccccc2CN2CCCC2=O)CC1)Cc1ccc(Cl)cc1)c1cc(=O)c2ccccc2o1 [Example 17] | 3.1 µM |  | no activation |  |  |  |
| COc1ccc2oc(C(=O)N[C@@H](C=C3CCC(c4ccccc4CN4CCCC4=O)CC3)Cc3ccc(Cl)cc3)cc(=O)c2c1 (stereo partly shown) [Example 34] |  |  |  | 3100% | 460% | 151% |

Continued, in another order:

| IC50 [1] | EC50 [2] | % activation functional assay [2] | SMILES | increase in cumulative food intake compared to vehicle ([3]; 2 hours following administration, p=0.048, n=4) | increase in cumulative food intake compared to vehicle ([3]; 4 hours following administration, p=0.092, n=4) | increase in cumulative food intake compared to vehicle ([3]; 7 hours following administration, p=0.047, n=4) |
| --- | --- | --- | --- | --- | --- | --- |
| 0.3 µM | 0.3 µM | 97% | O=C(N[C@@H](C=C1CCC(c2ccccc2CN2CCCC2=O)CC1)Cc1ccc(Cl)cc1)[C@H]1Cc2ccccc2CN1 (stereo partly shown) [Example 2] |  |  |  |
| 1 µM |  | no activation | O=C(N[C@@H](C=C1CCC(c2ccccc2CN2CCCC2=O)CC1)Cc1ccc(Cl)cc1)c1cc(=O)c2ccccc2o1 (stereo partly shown) [Example 18] |  |  |  |
